Results reported in ChEMBL document CHEMBL3112404, “Click chemistry inspired facile synthesis and bioevaluation of novel triazolyl analogs of Ludartin” (Bioorg Med Chem Lett, 2014).

How the values were obtained:
[1] = system: PC-3; experiment: Cytotoxicity against human PC3 cells assessed as growth inhibition at 50 uM by colorimetric sulphorhodamine B assay; type: functional; conditions: read-out: GI
[2] = system: A549; experiment: Cytotoxicity against human A549 cells assessed as growth inhibition at 50 uM by colorimetric sulphorhodamine B assay; type: functional; conditions: read-out: GI
[3] = system: T98G; experiment: Cytotoxicity against human T98G cells assessed as growth inhibition at 50 uM by colorimetric sulphorhodamine B assay; type: functional; conditions: read-out: GI
[4] = system: MCF7; experiment: Cytotoxicity against human MCF7 cells assessed as growth inhibition at 50 uM by colorimetric sulphorhodamine B assay; type: functional; conditions: read-out: GI
[5] = system: HCT-116; experiment: Cytotoxicity against human HCT116 cells assessed as growth inhibition at 50 uM by colorimetric sulphorhodamine B assay; type: functional; conditions: read-out: GI
[6] = system: PC-3; experiment: Cytotoxicity against human PC3 cells assessed as growth inhibition by colorimetric sulphorhodamine B assay; type: functional, cell-based
[7] = system: HCT-116; experiment: Cytotoxicity against human HCT116 cells assessed as growth inhibition by colorimetric sulphorhodamine B assay; type: functional, cell-based
[8] = system: A549; experiment: Cytotoxicity against human A549 cells assessed as growth inhibition by colorimetric sulphorhodamine B assay; type: functional, cell-based
[9] = system: MCF7; experiment: Cytotoxicity against human MCF7 cells assessed as growth inhibition by colorimetric sulphorhodamine B assay; type: functional, cell-based
[10] = system: T98G; experiment: Cytotoxicity against human T98G cells assessed as growth inhibition by colorimetric sulphorhodamine B assay; type: functional, cell-based

Row | SMILES | inhibition of growth at 50 µM [1] | inhibition of growth at 50 µM [2] | inhibition of growth at 50 µM [3] | inhibition of growth at 50 µM [4] | inhibition of growth at 50 µM [5] | IC50 [6] | IC50 [7] | IC50 [8] | IC50 [9] | IC50 [10]
1 | COc1ccc(-n2cc(CNC[C@@H]3C(=O)O[C@H]4[C@H]3CCC(C)=C3C[C@H]5O[C@@]5(C)[C@@H]34)nn2)cc1 | 0% | 20% | 0% | 0% | 0% | – | – | – | – | –
2 | CC1=C2C[C@H]3O[C@@]3(C)[C@@H]2[C@H]2OC(=O)[C@@H](CNCc3cn(-c4ccccc4[N+](=O)[O-])nn3)[C@@H]2CC1 | 0% | 17% | 0% | 0% | 0% | – | – | – | – | –
3 | CC1=C2C[C@H]3O[C@@]3(C)[C@@H]2[C@H]2OC(=O)[C@@H](CNCc3cn(-c4cccc([N+](=O)[O-])c4)nn3)[C@@H]2CC1 | 0% | 0% | 0% | 0% | 0% | – | – | – | – | –
4 | CC1=C2C[C@H]3O[C@@]3(C)[C@@H]2[C@H]2OC(=O)[C@@H](CNCc3cn(-c4ccc([N+](=O)[O-])cc4)nn3)[C@@H]2CC1 | 0% | 26% | 0% | 0% | 0% | – | – | – | – | –
5 | CC1=C2C[C@H]3O[C@@]3(C)[C@@H]2[C@H]2OC(=O)[C@@H](CNCc3cn(-c4ccccc4C#N)nn3)[C@@H]2CC1 | 22% | 46% | 42% | 12% | 20% | – | – | – | – | –
6 | CC1=C2C[C@H]3O[C@@]3(C)[C@@H]2[C@H]2OC(=O)[C@@H](CNCc3cn(-c4cccc(C#N)c4)nn3)[C@@H]2CC1 | 0% | 10% | 0% | 0% | 0% | – | – | – | – | –
7 | CC1=C2C[C@H]3O[C@@]3(C)[C@@H]2[C@H]2OC(=O)[C@@H](CNCc3cn(-c4ccc(C#N)cc4)nn3)[C@@H]2CC1 | 0% | 0% | 0% | 0% | 0% | – | – | – | – | –
8 | CC1=C2C[C@H]3O[C@@]3(C)[C@@H]2[C@H]2OC(=O)[C@@H](CNCc3cn(-c4ccc(F)cc4F)nn3)[C@@H]2CC1 | 21% | 19% | 12% | 29% | 0% | – | – | – | – | –
9 | CC1=C2C[C@H]3O[C@@]3(C)[C@@H]2[C@H]2OC(=O)[C@@H](CNCc3cn(-c4cccc(CO)c4)nn3)[C@@H]2CC1 | 0% | 47% | 0% | 13% | 11% | – | – | – | – | –
10 | CC1=C2C[C@H]3O[C@@]3(C)[C@@H]2[C@H]2OC(=O)[C@@H](CNCc3cn(-c4ccc(C)c(C)c4)nn3)[C@@H]2CC1 | 46% | 73% | 99% | 84% | 49% | 38 µM | 39 µM | 11 µM | 8.5 µM | 12 µM
11 | CC1=C2C[C@H]3O[C@@]3(C)[C@@H]2[C@H]2OC(=O)[C@@H](CNCc3cn(-c4cc(Cl)c(Cl)cc4Cl)nn3)[C@@H]2CC1 | 73% | 91% | 77% | 81% | 74% | 11 µM | 18 µM | 21 µM | 12 µM | 17 µM
12 | CC1=C2C[C@H]3O[C@@]3(C)[C@@H]2[C@H]2OC(=O)[C@@H](CNCc3cn(-c4ccccc4)nn3)[C@@H]2CC1 | 56% | 77% | 73% | 77% | 58% | 54 µM | 37 µM | 24 µM | 21 µM | 21 µM
13 | CC1=C2C[C@H]3O[C@@]3(C)[C@@H]2[C@H]2OC(=O)[C@@H](CNCc3cn(-c4cccc5ccccc45)nn3)[C@@H]2CC1 | 8% | 21% | 32% | 0% | 48% | – | – | – | – | –
14 | CC1=C2C[C@H]3O[C@@]3(C)[C@@H]2[C@H]2OC(=O)[C@@H](CNCc3cn(-c4ccccc4Cl)nn3)[C@@H]2CC1 | 28% | 32% | 37% | 12% | 6% | – | – | – | – | –
15 | CC1=C2C[C@H]3O[C@@]3(C)[C@@H]2[C@H]2OC(=O)[C@@H](CNCc3cn(-c4ccccc4Br)nn3)[C@@H]2CC1 | 0% | 68% | 17% | 22% | 79% | – | 26 µM | 24 µM | – | –
16 | CC1=C2C[C@H]3O[C@@]3(C)[C@@H]2[C@H]2OC(=O)[C@@H](CNCc3cn(-c4ccc(Br)cc4)nn3)[C@@H]2CC1 | 28% | 74% | 58% | 79% | 72% | – | 35 µM | 39 µM | 32 µM | 52 µM
17 | COc1ccccc1-n1cc(CNC[C@@H]2C(=O)O[C@H]3[C@H]2CCC(C)=C2C[C@H]4O[C@@]4(C)[C@@H]23)nn1 | 40% | 21% | 34% | 0% | 38% | – | – | – | – | –
18 | COc1cccc(-n2cc(CNC[C@@H]3C(=O)O[C@H]4[C@H]3CCC(C)=C3C[C@H]5O[C@@]5(C)[C@@H]34)nn2)c1 | 0% | 8% | 0% | 6% | 0% | – | – | – | – | –
19 | C=C1C(=O)O[C@H]2[C@H]1CCC(C)=C1C[C@H]3O[C@@]3(C)[C@@H]12 [LUDARTIN] | 97% | 97% | 97% | 100% | 97% | – | – | – | 0.5 µM | 6.3 µM
